Experimental data as given in patent US10472334B2, “Small molecules for inhibiting male fertility” (The University of North Carolina at Chapel Hill, priority 2014, dated 2019).
Read-outs that look alike come from different tables or passages of the source.

How the values were obtained:
human spermatozoa = assay: Internal sperm pH detection with BCECF; format: cell-based; conditions: FIG. 6, 10 and 20 μM
Method: A series of experiments was performed to determine the mechanism of action of the compounds described herein. The experiments were carried out as described in O'Rand and Widgren, “Loss of Calcium in Human Spermatozoa via EPPIN, the Semenogelin Receptor,” Biology of Reproduction, (2012) 86(2):55, 1-7.
The AM ester derivative of the pH-sensitive dye BCECF (5 μM; Molecular Probes) was used to detect changes in the pH in spermatozoa treated with SEMG1. Spermatozoa were loaded with BCECF-AM for 30 min in bovine serum albumin-free medium, centrifuged to remove extracellular dye, and resuspended in M16M. Changes to 1.13105-0.93105 spermatozoa/well in 50 μl of M16M at 378 C after treatment with 3.2 μM SEMG1 were monitored in a BioTek (Winookski, Vt.) Synergy2 Multiplatform automated plate reader (with heater and shaker); wells were excited using a 485/20 filter and emission read with a 528/20 filter. Fluorescence was read immediately and recorded every 10 sec; readings for each time point were normalized, averaged, and expressed as percentages of decrease in relative fluorescent units. Data from three ejaculate samples are reported.

[1] = Aqueous solubility (nephelometric method); format: physicochemical; conditions: at 100 μM
Method: Solutions of the test compound were prepared from DMSO stock solution at the specified test concentrations. The solutions were mixed thoroughly and aliquoted into a 384-well plate, incubated for 1 hour at 37° C., and the degree of light scattering in each solution was measured at 635 nm using a laser-based microplate nephelometer. The mean nephelometric reading at each concentration was calculated and compared to that of the blank solution and a positive control (a solution of latex at a minimum concentration sufficient to give a mean reading higher than that of blank solution, as determined by a calibration curve). The compound was judged to be soluble at a specific concentration if the mean reading was less than the reading of the positive control. In cases where the mean reading was greater than or equal to the positive control, the solution was reported as having a precipitate and a percent precipitation value was calculated using the following formula: % precipitation=(mean test compound−mean blank)/(mean positive control−mean blank)×100

[2] = In vitro metabolism, human liver microsomes; format: in vitro ADME; conditions: read-out: Human liver microsomes metabolism T½
Method: In vitro metabolism was evaluated using the methods described in Obach, R. S. et al. (1997), J. Pharmacol. Exp. Ther., 283: 46-58.
Intrinsic Clearance (microsomes, S9, cryopreserved hepatocytes, recombinant CYP, recombinant UGT) Metabolic stability, expressed as percent of the parent compound remaining, was calculated by comparing the peak area of the compound at the time point relative to that at time-O. The half-life (T½) was estimated from the slope of the initial linear range of the logarithmic curve of compound remaining (%) vs. time, assuming the first-order kinetics. The apparent intrinsic clearance (CLint, in μL/min/pmol, μL/min/mg or μL/min/Mcell) was calculated according to the following formula: […]

human sperm motility = assay: Computer-assisted sperm analysis (CASA) of human sperm motility; format: cell-based; conditions: for IC50: Homo sapiens, Sperm
Method: In another embodiment, a computer-assisted sperm analysis (CASA) can be used as a live cell compound screen for determining the effect of compounds on human sperm motility. Additionally, to facilitate the IC50 evaluation of compounds using different ejaculates, reducing inter-assay variation due to differences in sperm quality in different semen samples, an index of relative motility inhibition (RMI) was developed.
This is calculated as: RMI=[% motility*VSL]; percentage of motile sperm (% motility) or the percentage of progressively motile sperm (% progressive motility, RPMI) multiplied by the straight-line velocity (VSL); the average velocity measured in a straight line from the beginning to the end of a track in μm/sec.
Normalized RMI can be calculated by dividing the RMI of each experimental condition by its respective DMSO control.
Computer-assisted sperm analysis (CASA) was used as a live cell compound screen for determining the effect of compounds on human sperm motility. Computer-assisted sperm analysis (CASA) was performed using the approach taught in Mitra et al., Biology of Reproduction, Vol. 82, p 491 (2010), to determine the parameters of the control versus compound-treated spermatozoa. The parameters measured are: average pathway velocity (VAP: the average velocity of the smoothed cell path in 1 m/sec), the straight-line velocity (VSL: the average velocity measured in a straight line from the beginning to the end of track in 1 m/sec), the curvilinear velocity (VCL: the average velocity measured over the actual point-to-point track of the cell in 1 m/sec), the lateral head amplitude (ALH: amplitude of lateral head displacement in 1 m), the beat cross-frequency (BCF: frequency of sperm head crossing the sperm average path in Hz), the straightness (STR: the average value of the ratio VSL/VAP in %), and the linearity (LIN: the average value of the ratio VSL/VCL in %). The sperm motility parameters are assessed in pre-warmed (37° C.) two- or four-chambered 20-mm Leja slides, loading 5 μL or 2 μL, respectively, of the samples in each chamber and immediately using CASA. This computerized measuring device included a phase-contrast microscope (Olympus CX41), a camera, a mini-therm stage warmer, an image digitizer, and a computer to store and analyze data. The software used for data analysis is the HTR Ceros 12.3 (Hamilton-Thorne Biosciences). A range of 13 to 20 fields are scanned from each chamber. Progressive cells had to have a minimum of 25 μm/sec VAP and 80% of STR.
To facilitate the IC50 evaluation of compounds using different ejaculates, reducing inter-assay variation due to differences in sperm quality in different semen samples, an index of relative motility inhibition (RMI) was developed. This is calculated as: RMI=[% motility*VSL]; percentage of motile sperm (% motility) or the percentage of progressively motile sperm (% progressive motility, RPMI) multiplied by the straight-line velocity (VSL); the average velocity measured in a straight line from the beginning to the end of a sperm track in μm/sec. Normalized RMI (RPMI) was calculated by dividing the RMI of each experimental condition by its respective DMSO control.
The analysis of sperm motility was carried out with computer-assisted sperm analysis (CASA) (Ceros version 12.3 software; Hamilton-Thorne), using the techniques taught in Mitra et al., Biology of Reproduction, Vol. 82, p 491 (2010).

With CCOC(=O)CSc1nc(NNC(=O)OC)nc(Nc2ccc(NC(=O)OC)c(O)c2)n1 [TZ4_121, [4-(3-Hydroxy-4-methoxycarbonylamino-phenylamino)-6-(N′methoxycarbonyl-hydrazino)-1,3,5-triazin-2-ylsulfanyl]-acetic acid ethyl ester] the “change in internal sperm pH” value (human spermatozoa) was “significant decrease in pH”, the solubility [1] was “Good” and the half-life [2] was 41 min. The “change in progressive motility” value (human sperm motility; FIG. 7, 12.5 μM) was “significant decrease in progressive motility”, the IC50 (human sperm motility; FIG. 10, RMI using % progressive motility, read-out: IC50 in terms of progressive motility) was ~4.3 µM and the IC50 (human sperm motility; FIGS. 3 and 4, read-out: IC50, CASA, RMI (relative motility)) was ~7.5 µM. For the same compound, the IC50 (human sperm motility; relative motility index using % progressive motility, read-out: CASA IC50 RPMI) was 7.5 µM, the “time until infertility would likely result, time course of sperm motility” value (human sperm motility; concentration of around 20 μM, FIG. 5) was 3 to 5 min and the sperm killed (human sperm motility; within 3 minutes) was > 70%.
